From the supplement of paper PMC5412046
Structures can show the parent of a compound that is named as a salt.

test system: SB.msgc-1; test: AC50 for growth inhibition (viability) (log10 M); higher = less potent; details: SB.msgc-1 (sporadic gastric cancer)
Outline: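 Dosing used a pintool to add 23 nL compound in DMSO to 1536 wells, each with 500 hereditary or sporadic patient-derived gastric cancer cells, across 11 threefold dilutions starting at a final 46 μM. Viability after 48 h was measured by CellTiter-Glo luminescence on a ViewLux. The log half-maximal activity concentration derives from a four-parameter fit of that viability normalised to DMSO, limited to high-quality curve classes.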

SMILES | AC50 for growth inhibition (log10 M)
CCC(C)N1\N=C/N(C1=O)C2=CC=C(C=C2)N3CCN(CC3)C4=CC=C(OC[C@H]5CO[C@@](C[N]6C=NC=N6)(O5)C7=CC=C(Cl)C=C7Cl)C=C4 (stereo partly drawn) [Itraconazole] | -5.58
Cc1nc2cnc3ccc(C#Cc4cccnc4)cc3c2n1-c1ccc(C(C)(C)C#N)cc1 [BAG-956] | -5.93
Cc1cccc(C)c1OCC(=O)N[C@@H](Cc1ccccc1)[C@@H](O)C[C@H](Cc1ccccc1)NC(=O)[C@H](C(C)C)N1CCCNC1=O [Lopinavir] | -4.73
NC(=O)C1CCCc2c1[nH]c1ccc(Cl)cc21 (stereo not drawn) [EX-527] | -4.78
NC(=O)c1ccc(-c2nc(-c3ccc4c(c3)OCCO4)c(-c3ccccn3)[nH]2)cc1 [D-4476] | -4.73
CC(C)OC1=CC=C2C(=C1)O\C=C(/C2=O)C3=CC=CC=C3 [Ipriflavone] | -4.78
CC1=CC=C2N=C(NC(=O)CS\C3=N\C4=C(\SCC4)C(=O)N3C5=CC=CC=C5)SC2=C1 [IWP-2] | -5.18
Cc1ccc([S+](=O)([O-])Nc2nc3ccccc3nc2Nc2ccc3nsnc3c2)cc1 [XL-147] | -6.19
C=C(C)[C@@H]1CC[C@]2(C(=O)O)CC[C@]3(C)[C@H](CC[C@@H]4[C@@]5(C)CC[C@H](O)C(C)(C)[C@@H]5CC[C@]43C)[C@@H]12 [Betulinic acid] | -4.83
O=C(O)c1cccc(-c2noc(-c3ccccc3F)n2)c1 [PTC-124] | -4.83
O=C(O)c1ccc2c(c1)nc(Nc1cccc(Cl)c1)c1ccncc12 [Silmitasertib] | -4.93
COC(=O)c1ccc2c(c1)NC(=O)/C2=C(\Nc1ccc(N(C)C(=O)CN2CCN(C)CC2)cc1)c1ccccc1 [Vargatef] | -5.28
CC[C@]1(O)C[C@@H]2CN(CCc3c([nH]c4ccccc34)[C@@](C(=O)OC)(c3cc4c(cc3OC)N(C)[C@H]3[C@@](O)(C(N)=O)[C@H](O)[C@]5(CC)C=CCN6CC[C@]43[C@@H]65)C2)C1 [Vindesine sulfate] | -8.68
Fc1ccc(CNc2ncnc3ccc(F)cc23)cc1 [Spautin-1] | -5.48
Cc1ccnc(N[S+](=O)([O-])c2ccc(NC(=O)Nc3ccc([S+](=O)([O-])Nc4nccc(C)n4)cc3)cc2)n1 | -4.68
CC(=O)O[C@@]1(CC[C@H]2[C@@H]3\C=C(C)/C4=C/C(=O)CC[C@]4(C)[C@H]3CC[C@]12C)C(C)=O [Megestrol acetate] | -5.23
Cc1ccc(-c2cc(C(F)(F)F)nn2-c2ccc([S+](N)(=O)[O-])cc2)cc1 [Celecoxib] | -4.78
NC(=O)c1cccc(-c2cc(Nc3ccc(OC(F)(F)F)cc3)ncn2)c1 [GNF 2] | -4.73
Cc1cc(NC(=O)Nc2ccc(N(C)C)cc2)c2cc(F)cc(F)c2n1 | -5.08
CNC(=O)c1cc(Oc2ccc(NC(=O)Nc3cc(C(C)(C)C)nn3-c3ccc4ncccc4c3)c(F)c2)ccn1 [DCC-2036] | -5.63

SMILES | AC50 for growth inhibition (log10 M)
CC(C)CC(N(C)C)C1(c2ccc(Cl)cc2)CCC1 (stereo not drawn) [Sibutramine hydrochloride] | -4.73
COc1cc(/C=C/C(=O)CC(=O)/C=C/c2ccc(O)c(OC)c2)ccc1O [Curcumin] | -4.37
COc1cc([C@H]2Oc3cc([C@H]4Oc5cc(O)cc(O)c5C(=O)[C@@H]4O)ccc3O[C@@H]2CO)ccc1O [Silybin] | -4.78
CC[P](CC)(CC)=[Au][S][C@@H]1OC(COC(C)=O)[C@@H](OC(C)=O)[C@H](OC(C)=O)C1OC(C)=O (stereo partly drawn) [Auranofin] | -5.53
COc1cc([C@@H]2c3cc4c(cc3[C@H](O)[C@H]3COC(=O)[C@H]23)OCO4)cc(OC)c1OC [Picropodophyllin] | -8.43
CNc1nc(-c2ccc3c(N)n[nH]c3c2)cc(N2C[C@@H](C(=O)NC3CCCCC3)CC[C@H]2C)n1 | -4.68
N#CC[C@H](C1CCCC1)n1cc(-c2ncnc3[nH]ccc23)cn1 [Ruxolitinib] | -4.73
C[S+](=O)([O-])CCNCc1ccc(-c2ccc3ncnc(Nc4ccc(OCc5cccc(F)c5)c(Cl)c4)c3c2)o1 [Lapatinib] | -7.93
c1ccc(-c2nn3c(c2-c2ccnc4cc(OCCN5CCOCC5)ccc24)CCC3)nc1 | -4.68
C[C@@H]1O[C@@H](O[C@H]\2CC[C@]\3(C)[C@@H]4CC[C@]5(C)[C@@H](CC[C@@]5(O)[C@H]4CCC3=C2)C/6=C/OC(=O)/C=C6)[C@H](O)[C@H](O)[C@@H]1O [Proscillaridin] | -7.68
C=C1C(=O)OC(CCCCCCCC)C1C(=O)O (stereo not drawn) [C-75] | -4.58
Nc1nc(N)c2nc(-c3cccc(O)c3)c(-c3cccc(O)c3)nc2n1 | -5.18
CCCCc1ccc2[nH]c(NC(=O)OC)nc2c1 [Parbendazole] | -6.83
C[C@@]1(C(=O)Nc2ccc(F)nc2)CCCN1c1nc(Nc2cc(C3CC3)[nH]n2)c2cccn2n1 | -4.73
O=C(O)CCCc1ccc(N(CCCl)CCCl)cc1 [Chlorambucil] | -5.33
CC(C)c1c(C(=O)Nc2ccccc2)c(-c2ccccc2)c(-c2ccc(F)cc2)n1CC[C@@H](O)C[C@@H](O)CC(=O)[O-] [Atorvastatin calcium] | -4.68
Cc1cccc(Nc2nc(-c3ccncc3)cs2)c1 | -4.68
C/C(=C\C(=O)Nc1ccccc1C(=O)O)c1ccc2ccccc2c1 [BIBR 1532] | -4.78
C/C=C/C[C@@H](C)C(=O)[C@H]1C(=O)N[C@@H](C(C)C)C(=O)N(C)CC(=O)N(C)[C@@H](CC(C)C)C(=O)N[C@@H](C(C)C)C(=O)N(C)[C@@H](CC(C)C)C(=O)N[C@@H](C)C(=O)N[C@H](C)C(=O)N(C)[C@@H](CC(C)C)C(=O)N(C)[C@@H](CC(C)C)C(=O)N(C)[C@@H](C(C)C)C(=O)N1C [Valspodar] | -5.08
COc1ccc(-c2c(-c3ccc(O)cc3O)n[nH]c2C)cc1 [PDHK RIKEN] | -4.37

SMILES | AC50 for growth inhibition (log10 M)
O=C(/C=C/c1cccnc1)NCCCCC1CCN(C(=O)c2ccccc2)CC1 [Daporinad] | -6.08
CN(C)CCN(C)C(=O)c1ccc(NC(=O)Nc2ccc(-c3nc(N4CCOCC4)c4ccn(CC(F)(F)F)c4n3)cc2)cc1 | -5.18
O=C(C[C@@H]1C/C=C\CCC(=O)O[C@H](c2ccccc2)CNC1=O)NCc1ccc(Cl)cc1 [Robotnikinin] | -5.43
COC1CCC(CC1)N(C(=O)C2CCC(C)CC2)C3=C(SC(=C3)\C4=C\CCCC4)C(O)=O (stereo not drawn) [VCH-916] | -5.28
O=C([O-])C[C@H](O)C[C@H](O)/C=C/c1c(C2CC2)nc2ccccc2c1-c1ccc(F)cc1 [Pitavastatin calcium] | -5.03
CO[C@@H](C(=O)N1Cc2[nH]nc(NC(=O)c3ccc(N4CCN(C)CC4)cc3)c2C1)c1ccccc1 [Danusertib] | -5.53
COC[C@H]1OC(=O)C2=COC3=C2[C@@]1(C)\C4=C(C5CCC(=O)[C@@]5(C)C[C@H]4OC(C)=O)/C3=O (stereo partly drawn) [Wortmannin] | -4.83
CC1=C2N=C([NH]C2=CC(=C1)N3CCOCC3)\C4=C(NC[C@@H](O)C5=CC=CC(=C5)Cl)\C=C/NC4=O | -5.78
CC[C@H](C)C(=O)O[C@H]1C[C@@H](C)\C=C2\C=C/[C@H](C)[C@H](CC[C@@H]3C[C@@H](O)CC(=O)O3)[C@@H]12 [Lovastatin] | -4.73
Cc1csc(NC(=O)c2sc3nc4c(c(C(F)(F)F)c3c2N)CCC4)n1 [Irestatin 9389] | -4.68
Cc1nc(NC(=O)N2CCC[C@H]2C(N)=O)sc1-c1ccnc(C(C)(C)C(F)(F)F)c1 [BYL-719] | -4.88
CN1\N=C(N)/C2=C[N]([C@@H]3O[C@H](CO[P](O)(O)=O)[C@@H](O)[C@H]3O)C4=C2C1=NC=N4 [Triciribine phosphate] | -6.53
Cc1cn([C@H]2C=C[C@@H](CO)O2)c(=O)[nH]c1=O [Stavudine] | -4.37
O=C(Nc1cccnc1)N1CCC(Cc2cccc(Oc3ccc(C(F)(F)F)cn3)c2)CC1 [PF-3845] | -4.78
Clc1ccc(C(Cn2ccnc2)OCc2ccc(Sc3ccccc3)cc2)c(Cl)c1 (stereo not drawn) [Fenticonazole nitrate] | -4.73
CNC(=O)C1=CC=C(C)C(=C1)N2C(=C/C(=C(/Br)C2=O)OCC3=C(F)C=C(F)C=C3)\C | -4.98
O=c1cc(O)c(Cl)c[nH]1 [Gimeracil] | -4.68
Cc1cnc(Nc2cccc(CN3CCOCC3)c2)nc1Nc1cccc([S+](=O)([O-])NC(C)(C)C)c1 [TG-89] | -4.78
